Results taken from PubChem BioAssay AID330 (DTP/NCI, 2004).
Where “and” joins values, the source holds several entries; their conditions need not be identical. Equal entries are not always repeated. Inconclusive results and toxic doses are left out.

Tested on: P388 leukemia ip, CD2F1 mice, survival T/C
Experiment: NCI In Vivo Anticancer Drug Screen. Data for tumor model P388 Leukemia (intraperitoneal) in CD2F1 (CDF1) mice
Settings: endpoint: median survival time, higher = longer survival
Procedure, shortened: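 Mice carrying the transplanted tumor received test compound or vehicle. Survival was recorded in each group, and the value is the treated-group measurement divided by that of the vehicle-treated control group.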

[1] = dose: 50.0 mg/kg/injection, schedule: Q01DX009 (ip), vehicle: saline with Tween-80
[2] = dose: 100.0 mg/kg/injection, schedule: Q01DX009 (ip), vehicle: saline with Tween-80
[3] = dose: 60.0 mg/kg/injection, schedule: Q01DX005 (ip), vehicle: saline with Tween-80
[4] = dose: 120.0 mg/kg/injection, schedule: Q01DX005 (ip), vehicle: saline with Tween-80
[5] = dose: 240.0 mg/kg/injection, schedule: Q01DX005 (ip), vehicle: saline with Tween-80
[6] = dose: 50.0 mg/kg/injection, schedule: Q01DX009 (ip), vehicle: Klucel (hydroxypropylcellulose) (HPC)
[7] = dose: 100.0 mg/kg/injection, schedule: Q01DX009 (ip), vehicle: Klucel (hydroxypropylcellulose) (HPC)
[8] = dose: 50.0 mg/kg/injection, schedule: Q01DX001 (ip), vehicle: saline with Tween-80
[9] = dose: 100.0 mg/kg/injection, schedule: Q01DX001 (ip), vehicle: saline with Tween-80
[10] = dose: 200.0 mg/kg/injection, schedule: Q01DX001 (ip), vehicle: saline with Tween-80
[11] = dose: 50.0 mg/kg/injection, schedule: Q01DX009 (ip), vehicle: saline
[12] = dose: 100.0 mg/kg/injection, schedule: Q01DX009 (ip), vehicle: saline
[13] = dose: 200.0 mg/kg/injection, schedule: Q01DX009 (ip), vehicle: saline
[14] = dose: 100.0 mg/kg/injection, schedule: Q04DX002 (ip), vehicle: Klucel (hydroxypropylcellulose) (HPC)
[15] = dose: 200.0 mg/kg/injection, schedule: Q04DX002 (ip), vehicle: Klucel (hydroxypropylcellulose) (HPC)
[16] = dose: 60.0 mg/kg/injection, schedule: Q01DX005 (ip), vehicle: saline
[17] = dose: 120.0 mg/kg/injection, schedule: Q01DX005 (ip), vehicle: saline
[18] = dose: 100.0 mg/kg/injection, schedule: Q04DX003 (ip), vehicle: saline with Tween-80
[19] = dose: 200.0 mg/kg/injection, schedule: Q04DX003 (ip), vehicle: saline with Tween-80

SMILES: CCCCN(CCCC)C(=N)c1ccccc1Cl
- T/C (dose: 6.25 mg/kg/injection, schedule: Q01DX005 (ip), vehicle: Klucel (hydroxypropylcellulose) (HPC)): 103 % of control
- T/C (dose: 12.5 mg/kg/injection, schedule: Q01DX005 (ip), vehicle: Klucel (hydroxypropylcellulose) (HPC)): 99 % of control

SMILES: C=Cn1ccnc1C(O)(c1ccc(Cl)cc1)c1ccc(Cl)cc1
- T/C [1]: 92 % of control and 94 % of control
- T/C [2]: 100 % of control and 94 % of control
- T/C (dose: 200.0 mg/kg/injection, schedule: Q01DX009 (ip), vehicle: saline with Tween-80): 94 % of control
- T/C (dose: 400.0 mg/kg/injection, schedule: Q01DX009 (ip), vehicle: saline with Tween-80): 95 % of control and 98 % of control

SMILES: O=C(O)C1C2C=CC(C2)C1c1c2ccc(=O)c(O)c-2oc2c(O)c(O)ccc12 (configuration not stated)
- T/C [3]: 102 % of control
- T/C [4]: 101 % of control
- T/C [5]: 111 % of control

SMILES: C/C(=N\NS(=O)(=O)c1ccc(C)cc1)c1c(C)noc1C
- T/C [6]: 94 % of control
- T/C [7]: 99 % of control
- T/C (dose: 200.0 mg/kg/injection, schedule: Q01DX009 (ip), vehicle: Klucel (hydroxypropylcellulose) (HPC)): 100 % of control

SMILES: CCNc1nn2ccccc2c1/C=C(/C#N)C(=O)OCC
- T/C (dose: 25.0 mg/kg/injection, schedule: Q01DX001 (ip), vehicle: saline with Tween-80): 94 % of control
- T/C [8]: 91 % of control
- T/C [9]: 91 % of control
- T/C [10]: 91 % of control

SMILES: CCCNC12CN3CN(CN(C3)C1)C2
- T/C (dose: 100.0 mg/kg/injection, schedule: Q04DX003 (ip), vehicle: saline): 99 % of control
- T/C (dose: 200.0 mg/kg/injection, schedule: Q04DX003 (ip), vehicle: saline): 100 % of control
- T/C (dose: 400.0 mg/kg/injection, schedule: Q04DX003 (ip), vehicle: saline): 95 % of control

SMILES: NC(=O)N/N=C1\CCCCC12CCCC2
- T/C (dose: 100.0 mg/kg/injection, schedule: Q04DX002 (ip), vehicle: saline with Tween-80): 102 % of control
- T/C (dose: 200.0 mg/kg/injection, schedule: Q04DX002 (ip), vehicle: saline with Tween-80): 102 % of control
- T/C (dose: 400.0 mg/kg/injection, schedule: Q04DX002 (ip), vehicle: saline with Tween-80): 100 % of control

SMILES: CN(C)CCC(=O)c1cccc(O)c1
- T/C (dose: 25.0 mg/kg/injection, schedule: Q01DX009 (ip), vehicle: saline): 107 % of control
- T/C [11]: 98 % of control and 105 % of control
- T/C [12]: 98 % of control and 109 % of control
- T/C [13]: 97 % of control

SMILES: O=NNc1ccc(Oc2ccc(NN=O)cc2)cc1
- T/C (dose: 3.12 mg/kg/injection, schedule: Q01DX009 (ip), vehicle: water): 96 % of control
- T/C (dose: 6.25 mg/kg/injection, schedule: Q01DX009 (ip), vehicle: water): 96 % of control
- T/C (dose: 12.5 mg/kg/injection, schedule: Q01DX009 (ip), vehicle: water): 92 % of control
- T/C (dose: 25.0 mg/kg/injection, schedule: Q01DX009 (ip), vehicle: water): 100 % of control and 93 % of control
- T/C (dose: 50.0 mg/kg/injection, schedule: Q01DX009 (ip), vehicle: water): 100 % of control and 93 % of control
- T/C (dose: 100.0 mg/kg/injection, schedule: Q01DX009 (ip), vehicle: water): 91 % of control
- T/C (dose: 200.0 mg/kg/injection, schedule: Q01DX009 (ip), vehicle: water): 88 % of control

SMILES: Nc1ccc2c(SCCCCCCSc3c4ccccc4nc4cc(N)ccc34)c3ccccc3nc2c1
- T/C [3]: 100 % of control
- T/C [4]: 101 % of control
- T/C [5]: 104 % of control

SMILES: CCCCCCCC(=O)Nc1cc2c3c(c1)CCCN3CCC2
- T/C [8]: 100 % of control
- T/C [9]: 95 % of control
- T/C [10]: 90 % of control

SMILES: FC(F)(F)c1nnc(-c2ccccc2)nn1
- T/C [14]: 100 % of control
- T/C [15]: 104 % of control

SMILES: CNC(=O)Nc1[nH]c(=O)ncc1Cl
- T/C [3]: 112 % of control
- T/C [4]: 113 % of control

SMILES: CCN(CC)C(C)(C)C(=O)/C=C/c1ccc(Cl)c(Cl)c1
- T/C [16]: 102 % of control
- T/C [17]: 101 % of control
- T/C (dose: 240.0 mg/kg/injection, schedule: Q01DX005 (ip), vehicle: saline): 100 % of control

SMILES: CCCCC/C=C/CCCCCCC1C=CCC1 (configuration not stated)
- T/C (dose: 100.0 mg/kg/injection, schedule: Q01DX001 (ip), vehicle: saline): 101 % of control
- T/C (dose: 200.0 mg/kg/injection, schedule: Q01DX001 (ip), vehicle: saline): 100 % of control
- T/C (dose: 400.0 mg/kg/injection, schedule: Q01DX001 (ip), vehicle: saline): 100 % of control

SMILES: COc1ccccc1-n1c(SC)nccc1=O
- T/C [14]: 100 % of control
- T/C [15]: 100 % of control
- T/C (dose: 400.0 mg/kg/injection, schedule: Q04DX002 (ip), vehicle: Klucel (hydroxypropylcellulose) (HPC)): 94 % of control

SMILES: COC(=O)/C=C/N(Cc1ccccc1)/N=N/N(/C=C/C(=O)OC)Cc1ccccc1
- T/C (dose: 6.25 mg/kg/injection, schedule: Q01DX005 (ip), vehicle: saline with Tween-80): 101 % of control
- T/C (dose: 12.5 mg/kg/injection, schedule: Q01DX005 (ip), vehicle: saline with Tween-80): 95 % of control
- T/C (dose: 25.0 mg/kg/injection, schedule: Q01DX005 (ip), vehicle: saline with Tween-80): 97 % of control
- T/C (dose: 200.0 mg/kg/injection, schedule: Q01DX005 (ip), vehicle: saline with Tween-80): 87 % of control

SMILES: C=CCCCC(=O)CCCCO
- T/C (dose: 50.0 mg/kg/injection, schedule: Q01DX009 (ip), vehicle: other): 95 % of control
- T/C (dose: 100.0 mg/kg/injection, schedule: Q01DX009 (ip), vehicle: other): 107 % of control
- T/C (dose: 200.0 mg/kg/injection, schedule: Q01DX009 (ip), vehicle: other): 101 % of control

SMILES: Cc1nc2c(Cl)cccc2c2ccccc12
- T/C (dose: 50.0 mg/kg/injection, schedule: Q01DX005 (ip), vehicle: Klucel (hydroxypropylcellulose) (HPC)): 88 % of control
- T/C (dose: 100.0 mg/kg/injection, schedule: Q01DX005 (ip), vehicle: Klucel (hydroxypropylcellulose) (HPC)): 92 % of control
- T/C (dose: 200.0 mg/kg/injection, schedule: Q01DX005 (ip), vehicle: Klucel (hydroxypropylcellulose) (HPC)): 88 % of control

SMILES: O=C1NC2(CCCCC2)C(=O)N1CCCCCN(CCCl)CCCl
- T/C (dose: 1.5 mg/kg/injection, schedule: Q01DX005 (ip), vehicle: saline): 111 % of control
- T/C (dose: 3.0 mg/kg/injection, schedule: Q01DX005 (ip), vehicle: saline): 119 % of control
- T/C (dose: 40.0 mg/kg/injection, schedule: Q01DX005 (ip), vehicle: saline): 160 % of control

SMILES: CN(C)CCCN=C(N)CSP(=O)(O)O
- T/C [16]: 98 % of control
- T/C [17]: 104 % of control

SMILES: CC(=O)OCC1OC(n2cc(F)c(=O)[nH]c2=O)C(OC(C)=O)C1OC(C)=O (configuration not stated)
- T/C (dose: 1.56 mg/kg/injection, schedule: Q01DX009 (ip), vehicle: Klucel (hydroxypropylcellulose) (HPC)): 110 % of control
- T/C (dose: 6.25 mg/kg/injection, schedule: Q01DX009 (ip), vehicle: Klucel (hydroxypropylcellulose) (HPC)): 151 % of control
- T/C (dose: 12.5 mg/kg/injection, schedule: Q01DX009 (ip), vehicle: Klucel (hydroxypropylcellulose) (HPC)): 108 % of control
- T/C (dose: 25.0 mg/kg/injection, schedule: Q01DX009 (ip), vehicle: Klucel (hydroxypropylcellulose) (HPC)): 89 % of control
- T/C [6]: 89 % of control
- T/C [7]: 88 % of control

SMILES: CCCCCCC[CH2][Sn]([CH2]CCCCCCC)([S]CC(=O)OCCCC)[S]CC(=O)OCCCC
- T/C [11]: 99 % of control
- T/C [12]: 92 % of control and 95 % of control
- T/C [13]: 92 % of control and 94 % of control

SMILES: C=C1CC2(CCOc3ccccc32)OC1=O (configuration not stated)
- T/C (dose: 25.0 mg/kg/injection, schedule: Q04DX003 (ip), vehicle: saline with Tween-80): 105 % of control
- T/C (dose: 50.0 mg/kg/injection, schedule: Q04DX003 (ip), vehicle: saline with Tween-80): 115 % of control
- T/C [18]: 108 % of control and 117 % of control
- T/C [19]: 90 % of control

SMILES: BrCCC[n+]1ccc2ccccc2c1-c1nccc2ccccc12
- T/C (dose: 3.12 mg/kg/injection, schedule: Q01DX001 (ip), vehicle: saline): 104 % of control
- T/C (dose: 6.25 mg/kg/injection, schedule: Q01DX001 (ip), vehicle: saline): 98 % of control
- T/C (dose: 12.5 mg/kg/injection, schedule: Q01DX001 (ip), vehicle: saline): 101 % of control and 115 % of control

SMILES: O=C1C(=O)c2ccccc2C(O)=C1CC=C(Br)Br
- T/C [1]: 100 % of control
- T/C [2]: 100 % of control
- T/C [18]: 100 % of control
- T/C [19]: 110 % of control
